Experimental findings from ChEMBL document CHEMBL1135057, “A combinatorial library of indinavir analogues and its in vitro and in vivo studies” (Bioorg Med Chem Lett, 2002) are described below.

For data set [1], the target named is T1, Human immunodeficiency virus type 1 protease (Human immunodeficiency virus 1, UniProt Q72874). As to the kind of experiment: Tested in vitro for the ability to inhibit cleavage of a substrate by the wild type HIV-1 protease.
Data set [2] has as its system Human immunodeficiency virus 1. As to the kind of experiment: Inhibition of the spread of viral infection in MT-4 human T-lymphoid cells infected by IIIb isolate. The class given is functional. As to conditions: Human immunodeficiency virus 1, T-lymphoid; read-out: CIC95.
Data set [3] has as its target T1, Human immunodeficiency virus type 1 protease. The data set can be described thus: Tested in vitro for potential potency against PI-resistant HIV virus by A-44 mutant enzyme variant.
A short description of data set [4]: Tested for the pharmacokinetic data, maximum concentration (Cmax) in dog at dosage of 10 mpk. The class given is ADME, organism-based, Canis lupus familiaris. Details: dose 10 mpk. The conditions noted are these: in vivo, 10 mg/kg.
Data set [5] in a line: Tested for the half life period in dog. Format: ADME, organism-based, Canis lupus familiaris. The conditions noted are these: in vivo.
The nature of data set [6]: Tested for the pharmacokinetic data, area under the curve of concentration versus time in dog at dosage of 10 mpk. Format: ADME, organism-based, Canis lupus familiaris. The conditions noted are these: in vivo, 10 mg/kg.
A short description of data set [7]: Tested for the pharmacokinetic data, area under the curve of concentration versus time in dog. Format: ADME, organism-based, Canis lupus familiaris. As to conditions: in vivo.
The nature of data set [8]: Tested for the pharmacokinetic data, time required to reach Cmax (Tmax) in dog at dosage of 10 mpk. Format: ADME, organism-based, Canis lupus familiaris. As to conditions: in vivo, 10 mg/kg.
The species named for data set [9] is Canis familiaris. The data set can be described thus: Tested for the pharmacokinetic data, time required to reach Cmax (Tmax) in dog. The class given is ADME, organism-based, Canis lupus familiaris. As to conditions: in vivo.
Data set [10] can be described thus: Tested for the half life period in dog at dosage of 10 mpk. Format: ADME, organism-based, Canis lupus familiaris. As to conditions: in vivo, 10 mg/kg.
Data set [11] in a line: Tested for the pharmacokinetic data, maximum concentration (Cmax) in dog. The conditions noted are these: in vivo. The class given is ADME, organism-based, Canis lupus familiaris.

The term pIC50 denotes −log10 of the IC50, conventionally taken in molar units. High values mean a low IC50, low ones a high IC50. Broadly, the Cmax is the highest concentration seen after dosing. As usually defined, the half-life is how long it takes for the measured level to halve. Lower therefore signals fast loss. Usually AUC stands for concentration integrated over time. Read a low AUC as low exposure. Broadly, the Tmax is the time from dosing to the highest level.

pIC50: −log10 of the molar value.

In the case of `CN(C)c1ccc2cc(S(=O)(=O)N3CCN(C[C@@H](O)C[C@@H](Cc4ccccc4)C(=O)N[C@H]4c5ccccc5C[C@H]4O)[C@H](C(=O)NC(C)(C)C)C3)ccc2n1`, the pIC50 in data set [1] was more than 10.00; in [3], more than 9.22. In addition, in data set [2], the IC95 came out at 12.5 nM.
The corresponding values for `CC(C)(C)NC(=O)[C@@H]1CN(Cc2ncc(-c3ccccc3)s2)CCN1C[C@@H](O)C[C@@H](Cc1ccccc1)C(=O)N[C@H]1c2ccccc2C[C@H]1O` are more than 10.00, more than 9.22 and 25 nM.
For `C[C@@H]1CC[C@@H](O)C1NC(=O)[C@H](CC1CC1)C[C@H](O)CN1CCN(Cc2cccnc2)C[C@H]1C(=O)NC(C)(C)C` (single isomer, unassigned), the maximum concentration (Cmax) in [4] was found to be 6620 nM; in [11], 996 nM. Also, the figures for the half-life in [5] and in data set [10] were 19 min and 41 min, respectively. The AUC is 5.28 µM·h in [6] and 0.839 µM·h in data set [7]. The Tmax in data set [8] was 45 min. In data set [9], this compound returned a T max of 40 min.
Turning to `C[C@@H]1CC[C@@H](O)C1NC(=O)[C@H](CC1CCCCC1)C[C@H](O)CN1CCN(Cc2cccnc2)C[C@H]1C(=O)NC(C)(C)C` (single isomer, unassigned), the values for the Cmax in data set [4] and in [11] were 3760 nM and 483 nM, respectively. Moreover, the half-life in data set [5] came to 42.5 min; in [10] it was 49 min. For the same compound, the AUC turned out to be 3.83 µM·h in data set [6] and 0.504 µM·h in [7]. In addition, the Tmax in data set [8] was 25 min. Besides, the T max in [9] turned out to be 40 min.
For the compound `CC(C)(C)NC(=O)[C@@H]1CN(Cc2cccnc2)CCN1C[C@@H](O)C[C@@H](CC1CCCCC1)C(=O)NC1c2cccc(Cl)c2C[C@H]1O` (single isomer, unassigned), the results for the peak concentration (Cmax) in [4] and in data set [11] were 360 nM and 182 nM, respectively. Also, the half-life in data set [5] amounted to 81 min; in data set [10], 53 min. The values for the area under the curve (AUC) in [6] and in [7] were 0.48 µM·h and 0.235 µM·h, respectively. Also, the time to peak (Tmax) in data set [8] is 35 min. The compound further gave a T max in data set [9] of 40 min.
Take `Cn1nc(C(F)(F)F)cc1-c1ccc(CN2CCN(C[C@@H](O)C[C@@H](Cc3ccccc3)C(=O)NC3c4ccccc4C[C@H]3O)[C@H](C(=O)NC(C)(C)C)C2)s1` (single isomer, unassigned): the pIC50 in [1] was more than 10.00; in data set [3], more than 9.22. Also, the IC95 in data set [2] amounted to 6 nM.
